Experiments:
CBC-NELF-E 244–380 = CBC-NELF-E 244–380 (Homo sapiens, UniProt P52298); assay: ITC, m^7GTP titrated to CBC saturated with NELF-E 244–380; type: binding
Source text: Supplementary Figure 7. Influence of ARS2 and NELF-E on m7GTP binding to CBC.
Representative isothermal titration calorimetry data, presented as in the caption to Figure 1C,
allowing determination of the affinity of CBC to m7GTP in the absence (left) or in the
presence of bound ARS2827-871 (middle) or NELF-E244-380 (right). CBC or CBC saturated
with 2.2 molar excess of ARS2827-871 or NELF-E244-380 in the sample cell was titrated by
m7GTP. KD values represent the average from at least two independent experiments (see […]

CBC = target: T1, CBC (Homo sapiens, UniProt P52298); assay: ITC, binding to CBC without cap analogue; settings: ITC (MicroCal ITC200), 25 °C, 20 mM HEPES, 120 mM NaCl, 2 mM TCEP, pH 7.8, single-site fit, no cap analogue pre-bound, mean ± SD of at least two independent experiments
T1 sequence (P52298 1-156): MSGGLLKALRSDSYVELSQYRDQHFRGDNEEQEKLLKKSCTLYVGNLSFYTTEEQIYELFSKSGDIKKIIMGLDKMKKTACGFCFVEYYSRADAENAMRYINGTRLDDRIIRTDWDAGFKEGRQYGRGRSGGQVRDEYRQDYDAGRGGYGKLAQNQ
T1 sequence (Q09161 20-790 partner): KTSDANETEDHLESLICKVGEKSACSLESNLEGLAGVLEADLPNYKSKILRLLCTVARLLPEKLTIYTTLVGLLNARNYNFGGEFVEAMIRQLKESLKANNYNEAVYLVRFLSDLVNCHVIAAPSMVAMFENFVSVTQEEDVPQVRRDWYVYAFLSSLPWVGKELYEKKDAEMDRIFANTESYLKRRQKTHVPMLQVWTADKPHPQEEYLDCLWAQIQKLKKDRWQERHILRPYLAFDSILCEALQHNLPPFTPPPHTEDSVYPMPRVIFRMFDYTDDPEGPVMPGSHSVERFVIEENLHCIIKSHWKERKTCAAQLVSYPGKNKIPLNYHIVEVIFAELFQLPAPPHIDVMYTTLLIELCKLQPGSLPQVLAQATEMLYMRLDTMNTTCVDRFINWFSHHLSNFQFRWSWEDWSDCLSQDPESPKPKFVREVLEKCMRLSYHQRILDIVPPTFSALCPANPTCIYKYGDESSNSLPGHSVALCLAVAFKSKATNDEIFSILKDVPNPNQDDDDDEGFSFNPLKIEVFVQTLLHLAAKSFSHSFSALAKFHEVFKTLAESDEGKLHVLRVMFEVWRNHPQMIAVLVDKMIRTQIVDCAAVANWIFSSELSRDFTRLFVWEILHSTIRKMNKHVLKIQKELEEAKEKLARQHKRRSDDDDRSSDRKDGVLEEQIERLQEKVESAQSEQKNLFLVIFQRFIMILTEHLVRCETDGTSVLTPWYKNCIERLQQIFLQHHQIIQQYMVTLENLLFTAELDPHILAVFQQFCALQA
Source text: hARS2 isoform-4 (871 residues, UniProt:Q9BXP5-4, also known as isoform-e, NP_001122326) constructs (residues 147–871, 147–845, 763–871, 763–845, 827–871) hNELF-E (NM_002904.5) (244–380, 244–360) and hPHAX (NM_032177.3) (1–394, 103–294, 103–308, 103–327) were cloned into pETM11 (EMBL). Full-length hNELF-E (1–380) was cloned into pFASTBac and CBP20 into pETM30. Primers used are given in Supplementary Table 2. All constructs were expressed in E. coli Rosetta 2 (Novagen), except full-length NELF-E and CBP80ΔNLS (CBP80 with residues 1–19 deleted[2]), which were expressed in High Five insect cells (Life Technology). Cells were harvested and lysed by sonication in lysis buffer containing 50 mM HEPES, pH 7.8, 300 mM NaCl, 10% (v/v) glycerol, 5 mM β-mercaptoethanol. Lysates were clarified by centrifugation and applied on an equilibrated Ni-sepharose column (GE Healthcare), washed with 20 mM imidazole in lysis buffer, and eluted with 300 mM imidazole in lysis buffer. While dialysing into 20 mM HEPES, pH 7.8, 120 mM NaCl, 10% (v/v) glycerol, 5 mM β-mercaptoethanol, the N-terminal 6-histidine-tag was cleaved with His-tagged Tobacco Etch Virus (TEV) protease overnight in a ratio 1:100 mg TEV per mg protein. The cleaved protein was further purified first on Ni-sepharose to remove TEV and then using an anion exchange column (HiTrap Q, GE Healthcare) followed if necessary by a Heparin column (GE Healthcare). In both cases a NaCl gradient from 50 to 800 mM in 20 mM HEPES 7.8, 0.5 mM tris(2-carboxyethyl)phosphine was used. To reconstitute the CBC heterodimer, cleared His-tagged CBP20 lysate was first immobilised on a Ni-sepharose column. After washing the column with lysis buffer, the cleared CBP80 lysate was applied to the column and further purification steps performed as described above. To remove the access of CBP20 the flow through of the Ni-column after TEV cleavage was loaded on an anion exchange column (HiTrap Q, GE Healthcare) and CBC eluted by a NaCl gradient as described above. In the text we refer to CBP80ΔNLS and CBP80ΔNLS-CBP20 as CBP80 and CBC, respectively. […]

CBC-NELF-E 244–380, sequence (P18615 244-380 partner, one chain of several): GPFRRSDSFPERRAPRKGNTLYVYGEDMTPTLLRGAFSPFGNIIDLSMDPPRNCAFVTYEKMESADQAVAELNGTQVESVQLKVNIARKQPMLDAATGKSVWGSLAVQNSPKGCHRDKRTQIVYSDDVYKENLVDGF

Kd (CBC-NELF-E 244–380; 25 °C, pH 7.8, CBC saturated with 2.2 molar excess of NELF-E 244–380, titrated by m^7GTP, mean ± SD of 3 experiments, SD): 44 ± 2 nM | Increase of the affinity of CBC for cap (m^7GTP) by saturating NELF-E (CBC-NELF-E 244–380; compared to m^7GTP binding to CBC alone): ~ 3 factor | Kd (CBC): 100 nM | Kd (CBC; SD): 126 ± 45 nM
SMILES: C[n+]1cn([C@@H]2O[C@H](COP(=O)(O)OP(=O)([O-])OP(=O)(O)O)[C@@H](O)[C@H]2O)c2nc(N)[nH]c(=O)c21 [m^7GTP]
